Measurements reported in patent publication US10494363B2, “Non-steroidal glucocorticoid receptor modulators for local drug delivery” (LEO PHARMA A/S, priority 2015, dated 2019).

How the values were obtained:
[1] = biological target: T1, glucocorticoid receptor (GR), recombinant full-length receptor protein (Homo sapiens, UniProt P04150); assay: Glucocorticoid receptor binding assay (fluorescence polarization kit); settings: 4 nM receptor, 2.5 nM Fluormone GS1 tracer, 2h room temperature, read-out: GR binding ABS IC50
T1 construct: 4 nM recombinant, full-length receptor protein was incubated with increasing concentrations of GR ligand; purchased Life Technologies A-15897
T1 sequence (P04150 1-777): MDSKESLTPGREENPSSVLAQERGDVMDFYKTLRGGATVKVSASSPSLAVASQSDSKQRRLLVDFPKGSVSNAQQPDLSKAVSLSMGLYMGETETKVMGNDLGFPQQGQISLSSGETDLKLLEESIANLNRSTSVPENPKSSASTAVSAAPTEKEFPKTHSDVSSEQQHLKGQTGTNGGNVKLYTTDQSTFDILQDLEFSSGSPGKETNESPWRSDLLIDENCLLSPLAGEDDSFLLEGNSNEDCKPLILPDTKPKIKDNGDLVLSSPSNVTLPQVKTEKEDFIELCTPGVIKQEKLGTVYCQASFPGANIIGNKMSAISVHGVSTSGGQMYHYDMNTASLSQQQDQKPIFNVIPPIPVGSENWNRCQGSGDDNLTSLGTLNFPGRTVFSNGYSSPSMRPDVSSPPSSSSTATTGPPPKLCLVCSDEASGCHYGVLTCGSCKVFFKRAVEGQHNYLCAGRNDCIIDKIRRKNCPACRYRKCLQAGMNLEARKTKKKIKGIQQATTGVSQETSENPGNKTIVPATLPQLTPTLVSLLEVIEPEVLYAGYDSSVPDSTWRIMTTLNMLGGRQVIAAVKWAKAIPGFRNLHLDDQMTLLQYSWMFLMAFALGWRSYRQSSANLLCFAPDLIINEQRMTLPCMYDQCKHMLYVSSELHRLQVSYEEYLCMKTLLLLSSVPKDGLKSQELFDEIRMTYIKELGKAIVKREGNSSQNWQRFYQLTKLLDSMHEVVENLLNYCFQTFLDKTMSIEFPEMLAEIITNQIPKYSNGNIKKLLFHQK
Protocol: Test compounds were diluted in DMSO over seven orders of magnitude, further diluted in assay buffer and distributed into 384-well plates. The sensitivity limit of this assay was 2-4 nM.
Data were processed by sigmoidal curve fitting.
Absolute (Abs) IC50 and Emax were determined from the curve fits.

[2] = system: TNF alpha release from human PBMCs; assay: Inhibition of TNF alpha release from human PBMCs; format: cell-based; settings: LPS 1 μg/ml, 18 hours, AlphaLISA
Procedure, shortened: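 Fresh or thawed PBMCs in serum-free medium with 0.5% HSA, stimulated with 1 μg/ml LPS plus titrated compound for 18 h at 37° C. TNF-a in supernatant by AlphaLISA; window set with a reference PDE4 inhibitor at 100×IC50. EC50 and Emax from sigmoidal fits.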

[3] = Human liver microsomes (HLM) assay; format: in vitro ADME; settings: hepatic extraction ratio; 0.5 μM compound, 0.5 mg/mL microsomes, NADPH, 37° C.
Protocol: Incubations of test compounds in DMSO, diluted with phosphate buffer, pH 7.4, at 0.5 μM were carried out with human liver microsomes (0.5 mg/mL). The percentage of organic solvent in the incubations was 1%. The human liver microsomal suspension in phosphate buffer was mixed with NADPH (1 mM) and preheated to 37° C. before test compound was added. Aliquots were taken at 0, 5, 10, 20 and 30 minutes, and reactions were terminated by addition of methanol containing analytical internal standard (IS).
The results were expressed as apparent clearance (Clapp) (mL/min/kg) and hepatic extraction ratio (Eh) (%) calculated from the rate constant (k) (min^−1) of test compound depletion.

Row | SMILES | IC50 [1] [µM] | EC50 ([2]; PBMC) [µM] | HLM assay Eh (%) [3] | EC50 [2] [µM]
1 | C[C@H](NC(=O)c1ncco1)[C@H](Oc1ccc(C(=O)N[C@H]2CCCN(C(=O)[C@H]3COC(=O)C3)C2)nc1)c1ccc(C2CC2)cc1 [Compound 6, N-[(1S,2R)-2-(4-cyclopropylphenyl)-1-methyl-2-[[6-[[(3S)-1-[(3R)-5-oxotetrahydrofuran-3-carbonyl]-3-piperidyl]carbamoyl]-3-pyridyl]oxy]ethyl]oxazole-2-carboxamide] | < 0.1 | < 0.1 | * (extraction ratio (Eh)>90%) | –
2 | C[C@H](NC(=O)C(C)(F)F)[C@H](Oc1ccc(C(=O)N[C@H]2CCCN(C(=O)[C@H]3COC(=O)C3)C2)nc1)c1ccc(C2CC2)cc1 [Compound 3, 5-[(1R,2S)-1-(4-cyclopropylphenyl)-2-(2,2-difluoropropanoylamino)propoxy]-N-[(3S)-1-[(3R)-5-oxotetrahydrofuran-3-carbonyl]-3-piperidyl]pyridine-2-carboxamide] | < 0.1 | < 0.1 | * (extraction ratio (Eh)>90%) | –
3 | C[C@H](NC(=O)c1ccnn1C)[C@H](Oc1ccc(C(=O)O[C@H]2CCCN(C(=O)[C@H]3COC(=O)C3)C2)cc1)c1ccc(C2CC2)cc1 [Compound 35, [(3S)-1-[(3R)-5-oxotetrahydrofuran-3-carbonyl]-3-piperidyl] 4-[(1R,2S)-1-(4-cyclopropylphenyl)-2-[(2-methylpyrazole-3-carbonyl)amino]propoxy]benzoate] | < 0.1 | 0.1 to 0.3 | * (extraction ratio (Eh)>90%) | –
4 | C[C@H](NC(=O)c1cscn1)[C@H](Oc1ccc(C(=O)N[C@H]2CCCN(C(=O)[C@H]3COC(=O)C3)C2)nc1)c1ccc(C2CC2)cc1 [Compound 7, N-[(1S,2R)-2-(4-cyclopropylphenyl)-1-methyl-2-[[6-[[(3S)-1-[(3R)-5-oxotetrahydrofuran-3-carbonyl]-3-piperidyl]carbamoyl]-3-pyridyl]oxy]ethyl]thiazole-4-carboxamide] | < 0.1 | < 0.1 | * (extraction ratio (Eh)>90%) | –
5 | C[C@H](NC(=O)[C@H]1CCCO1)[C@H](Oc1ccc(C(=O)N[C@H]2CCCN(C(=O)[C@H]3COC(=O)C3)C2)nc1)c1ccc(C2CC2)cc1 [Compound 22, 5-[(1R,2S)-1-(4-cyclopropylphenyl)-2-[[(2R)-tetrahydrofuran-2-carbonyl]amino]propoxy]-N-[(3S)-1-[(3R)-5-oxotetrahydrofuran-3-carbonyl]-3-piperidyl]pyridine-2-carboxamide] | < 0.1 | < 0.1 | * (extraction ratio (Eh)>90%) | –
6 | C[C@H](NC(=O)c1ccsn1)[C@H](Oc1ccc(C(=O)N[C@H]2CCCN(C(=O)[C@H]3COC(=O)C3)C2)nc1)c1ccc(C2CC2)cc1 [Compound 4, N-[(1S,2R)-2-(4-cyclopropylphenyl)-1-methyl-2-[[6-[[(3S)-1-[(3R)-5-oxotetrahydrofuran-3-carbonyl]-3-piperidyl]carbamoyl]-3-pyridyl]oxy]ethyl]isothiazole-3-carboxamide] | < 0.1 | < 0.1 | * (extraction ratio (Eh)>90%) | –
7 | Cc1scnc1C(=O)N[C@@H](C)[C@H](Oc1ccc(C(=O)O[C@H]2CCCN(C(=O)[C@H]3COC(=O)C3)C2)cc1)c1ccc(C2CC2)cc1 [Compound 29, [(3S)-1-[(3R)-5-oxotetrahydrofuran-3-carbonyl]-3-piperidyl] 4-[(1R,2S)-1-(4-cyclopropylphenyl)-2-[(5-methylthiazole-4-carbonyl)amino]propoxy]benzoate] | < 0.1 | < 0.1 | * (extraction ratio (Eh)>90%) | –
8 | C[C@H](NC(=O)CCO)[C@H](Oc1ccc(C(=O)N[C@H]2CCCN(C(=O)[C@H]3COC(=O)C3)C2)nc1)c1ccc(C2CC2)cc1 [Compound 16, 5-[(1R,2S)-1-(4-cyclopropylphenyl)-2-(3-hydroxypropanoylamino)propoxy]-N-[(3S)-1-[(3R)-5-oxotetrahydrofuran-3-carbonyl]-3-piperidyl]pyridine-2-carboxamide] | > 0.3 | < 0.1 | * (extraction ratio (Eh)>90%) | –
9 | C[C@H](NC(=O)c1cn(C)cn1)[C@H](Oc1ccc(C(=O)O[C@H]2CCCN(C(=O)[C@H]3COC(=O)C3)C2)cc1)c1ccc(C2CC2)cc1 [Compound 43, [(3S)-1-[(3R)-5-oxotetrahydrofuran-3-carbonyl]-3-piperidyl] 4-[(1R,2S)-1-(4-cyclopropylphenyl)-2-[(1-methylimidazole-4-carbonyl)amino]propoxy]benzoate] | < 0.1 | < 0.1 | * (extraction ratio (Eh)>90%) | –
10 | C[C@H](NC(=O)c1nccs1)[C@H](Oc1ccc(C(=O)O[C@H]2CCCN(C(=O)[C@H]3COC(=O)C3)C2)cc1)c1ccc(C2CC2)cc1 [Compound 46, [(3S)-1-[(3R)-5-oxotetrahydrofuran-3-carbonyl]-3-piperidyl] 4-[(1R,2S)-1-(4-cyclopropylphenyl)-2-(thiazole-2-carbonylamino)propoxy]benzoate] | < 0.1 | < 0.1 | ** (50%<extraction ratio (Eh)<90%) | –
11 | C[C@H](NC(=O)c1ccns1)[C@H](Oc1ccc(C(=O)O[C@H]2CCCN(C(=O)[C@H]3COC(=O)C3)C2)cc1)c1ccc(C2CC2)cc1 [Compound 47, [(3S)-1-[(3R)-5-oxotetrahydrofuran-3-carbonyl]-3-piperidyl] 4-[(1R,2S)-1-(4-cyclopropylphenyl)-2-(isothiazole-5-carbonylamino)propoxy]benzoate] | < 0.1 | < 0.1 | * (extraction ratio (Eh)>90%) | –
12 | C[C@H](NC(=O)C(F)(F)F)[C@H](Oc1ccc(C(=O)O[C@H]2CCCN(C(=O)[C@H]3COC(=O)C3)C2)cc1)c1ccc(C2CC2)cc1 [Compound 24, [(3S)-1-[(3R)-5-oxotetrahydrofuran-3-carbonyl]-3-piperidyl] 4-[(1R,2S)-1-(4-cyclopropylphenyl)-2-[(2,2,2-trifluoroacetyl)amino]propoxy]benzoate] | < 0.1 | < 0.1 | * (extraction ratio (Eh)>90%) | –
13 | C[C@H](NC(=O)c1csnn1)[C@H](Oc1ccc(C(=O)O[C@H]2CCCN(C(=O)[C@H]3COC(=O)C3)C2)cc1)c1ccc(C2CC2)cc1 [Compound 52, [(3S)-1-[(3R)-5-oxotetrahydrofuran-3-carbonyl]-3-piperidyl] 4-[(1R,2S)-1-(4-cyclopropylphenyl)-2-(thiadiazole-4-carbonylamino)propoxy]benzoate] | < 0.1 | – | * (extraction ratio (Eh)>90%) | < 0.1
14 | Cc1nnc(C(=O)N[C@@H](C)[C@H](Oc2ccc(C(=O)O[C@H]3CCCN(C(=O)[C@H]4COC(=O)C4)C3)cc2)c2ccc(C3CC3)cc2)o1 [Compound 31, [(3S)-1-[(3R)-5-oxotetrahydrofuran-3-carbonyl]-3-piperidyl] 4-[(1R,2S)-1-(4-cyclopropylphenyl)-2-[(5-methyl-1,3,4-oxadiazole-2-carbonyl)amino]propoxy]benzoate] | < 0.1 | < 0.1 | * (extraction ratio (Eh)>90%) | –
15 | Cc1cc(C(=O)N[C@@H](C)[C@H](Oc2ccc(C(=O)O[C@H]3CCCN(C(=O)[C@H]4COC(=O)C4)C3)cc2)c2ccc(C3CC3)cc2)no1 [Compound 53, [(3S)-1-[(3R)-5-oxotetrahydrofuran-3-carbonyl]-3-piperidyl] 4-[(1R,2S)-1-(4-cyclopropylphenyl)-2-[(5-methylisoxazole-3-carbonyl)amino]propoxy]benzoate] | < 0.1 | < 0.1 | * (extraction ratio (Eh)>90%) | –
